According to patent US10501516B2, “Peptide compound” (TAKEDA PHARMACEUTICAL COMPANY LIMITED, priority 2016, dated 2019):
Square brackets hold non-standard residues; d marks the D form. Side chains are listed from the residue outwards. Peptide text beside a SMILES is read from it. * marks the point of attachment. C18 diacid = O=C(O)CCCCCCCCCCCCCCCCC(=O)*; Phe(2-F) = N[C@@H](Cc1ccccc1F)C(=O)O; NMeY = CN[C@@H](Cc1ccc(O)cc1)C(=O)O; αMeF = C[C@](N)(Cc1ccccc1)C(=O)O; Iva = CC[C@](C)(N)C(=O)O; Aib = CC(C)(N)C(=O)O

Key:
[1] = biological target: T1, human NPY2R (Homo sapiens, UniProt P49146); experiment: Reporter assay of human NPY2R gene (agonist activity, decrease in intracellular cAMP as index); format: cell-based; settings: Cre-luc reporter, hNPY2R CHO-K1 cells, forskolin 1.2 μM, 4 hours; read-out: Agonist activity (EC50) hY2R
T1 construct: expressed in transfected cells; host or cells: CHO-K1 Cre-luc reporter cells (pAKKO1114/hNPY2R#481 No. 88 cells)
T1 sequence (P49146 1-381): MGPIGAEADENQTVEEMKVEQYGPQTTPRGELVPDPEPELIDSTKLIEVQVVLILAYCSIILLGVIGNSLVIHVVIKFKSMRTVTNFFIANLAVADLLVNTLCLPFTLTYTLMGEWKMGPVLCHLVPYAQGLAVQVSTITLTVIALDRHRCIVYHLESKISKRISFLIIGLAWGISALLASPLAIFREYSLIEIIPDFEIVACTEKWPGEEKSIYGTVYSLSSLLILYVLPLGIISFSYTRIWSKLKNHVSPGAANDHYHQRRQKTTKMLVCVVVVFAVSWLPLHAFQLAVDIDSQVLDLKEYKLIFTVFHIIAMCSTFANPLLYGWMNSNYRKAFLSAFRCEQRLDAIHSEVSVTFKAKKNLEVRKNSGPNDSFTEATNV
Description: Evaluation of Agonist Activity Against Human NPY2R, Human GIPR, and Human GLP-1R Using Change in Intracellular cAMP Concentration as Index
The human NPY2R gene having a sequence identical to the sequence of GenBank Accession No. AC104407 was cloned into pAKKO1114 vector to prepare hNPY2R/pAKKO1114. Next, pGL4.29 (Promega) was introduced to CHO-K1 cells, which were then screened with hygromycin to construct Cre-luc reporter cells. These cells were cotransfected with hNPY2R/pAKKO1114 and pcDNA3.1 (Life Technologies Corp.), and the cells were screened with geneticin. Next, a cell line induced to express luciferase, i.e., pAKKO1114/hNPY2R#481 No. 88 cells, were selected from the obtained transformants by the addition of human PYY (3-36).
The pAKKO1114/hNPY2R#481 No. 88 cells were inoculated at a cell density of 25 μL/well (5,000 cells/well) to a 384-well white plate (Corning, 3570), and cultured overnight in Ham F12 medium containing 10% fetal bovine serum, 100 U/mL penicillin and 100 μg/mL streptomycin in a CO2 incubator of 37° C. On the next day, the medium was removed, and an assay medium (Ham F12 medium containing 0.1% BSA, 100 U/mL penicillin and 100 μg/mL streptomycin) containing forskolin (final concentration: 1.2 μM) was added at a concentration of 25 μL/well to the cells. Next, an assay medium containing a test compound was added at a concentration of 5 μL/well to the cells, and the resultant cells were incubated for 4 hours in a CO2 incubator of 37° C. to give the final concentration of 1 μM. SteadyGlo (Promega) was added thereto at a concentration of 30 μL/well, and the mixture was left standing for 20 minutes with light shielded. The luciferase activity was measured using a plate reader Envision (PerkinElmer). The luciferase activity from the addition of DMSO was defined as 100%, and the luciferase activity from the addition of 1 μM human PYY(3-36) instead of the test compound was defined as 0%. The NPY2R agonist activity was calculated with a decrease in intracellular cAMP concentration as an index.

[2] = system: male C57BL/6J mouse; experiment: Evaluation of feeding suppressive action in mice; format: in vivo; settings: 3-days cumulative food consumption vs solvent control
Summary of the method: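 Male C57BL/6J mice, 8-9 weeks, ad libitum fed, given compound (30 or 100 nmol/2 mL in 10% DMSO saline) s.c. at 2 mL/kg once daily for 3 days. Cumulative 3-day food consumption measured by weighing; suppression rate (%) calculated relative to vehicle controls.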

Compound	EC50 [1] [nM]	Rate of feeding suppression (%) ([2]; 30 nmol/kg s.c. once a day for 3 days)	Rate of feeding suppression (%) ([2]; 100 nmol/kg s.c. once a day for 3 days)
CC[C@H](C)[C@H](NC(=O)C(C)(C)NC(=O)[C@H](CCCCNC(=O)CNC(=O)CNC(=O)CNC(=O)CNC(=O)CCCCCCCCCCCCCCCCC(=O)O)NC(=O)[C@H](CC(=O)O)NC(=O)[C@H](CO)NC(=O)[C@@H](NC(=O)[C@](C)(Cc1ccccc1)NC(=O)[C@@H](NC(=O)CNC(=O)[C@H](CCC(=O)O)NC(=O)C(C)(C)NC(=O)[C@@H](N)Cc1ccc(O)cc1)[C@@H](C)O)[C@@H](C)O)C(=O)NC(C)(C)C(=O)N[C@@H](CC(C)C)C(=O)N[C@@H](CC(=O)O)C(=O)N[C@@H](CCCCN)C(=O)N[C@@H](CCC(N)=O)C(=O)N[C@@H](CCCNC(=N)N)C(=O)N[C@@H](CCC(N)=O)C(=O)N[C@@](C)(CC)C(=O)N[C@@H](CCC(=O)O)C(=O)N[C@@H](Cc1ccccc1)C(=O)N[C@H](C(=O)N[C@@H](CCCNC(=N)N)C(=O)N[C@@H](Cc1c[nH]cn1)C(=O)N[C@@H](CC(C)C)C(=O)N[C@@H](CC(C)C)C(=O)N[C@@H](CC(N)=O)C(=O)N[C@@H](CCCCN)C(=O)NC(C)(C)C(=O)N[C@H](C(=O)N[C@@H](CCCNC(=N)N)C(=O)N[C@@H](CCC(N)=O)C(=O)N[C@@H](CCCNC(=N)N)C(=O)N[C@@H](Cc1ccc(O)cc1)C(N)=O)[C@@H](C)O)C(C)C [Example 8] (H-Y[Aib]EGT[αMeF]TSDK([Gly-Gly-Gly-Gly-C18 diacid])[Aib]I[Aib]LDKQRQ[Iva]EFVRHLLNK[Aib]TRQRY-NH2)	2.1		
CC[C@H](C)[C@H](NC(=O)[C@H](CO)NC(=O)[C@H](CCCCNC(=O)CNC(=O)CNC(=O)CNC(=O)CNC(=O)CCCCCCCCCCCCCCCCC(=O)O)NC(=O)[C@H](CC(=O)O)NC(=O)[C@H](CO)NC(=O)[C@@H](NC(=O)[C@](C)(Cc1ccccc1)NC(=O)[C@@H](NC(=O)CNC(=O)[C@H](CCC(=O)O)NC(=O)C(C)(C)NC(=O)[C@@H](N)Cc1ccc(O)cc1)[C@@H](C)O)[C@@H](C)O)C(=O)NC(C)(C)C(=O)N[C@@H](CC(C)C)C(=O)N[C@@H](CC(=O)O)C(=O)N[C@@H](CCCCN)C(=O)N[C@@H](CCC(N)=O)C(=O)N[C@@H](CCCNC(=N)N)C(=O)N[C@@H](CCC(N)=O)C(=O)N[C@@](C)(CC)C(=O)N[C@@H](CCC(=O)O)C(=O)N[C@@H](Cc1ccccc1)C(=O)N[C@H](C(=O)N[C@@H](CCCNC(=N)N)C(=O)N[C@@H](Cc1c[nH]cn1)C(=O)N[C@@H](CC(C)C)C(=O)N[C@@H](CC(C)C)C(=O)N[C@@H](CC(N)=O)C(=O)N[C@@H](CCCCN)C(=O)NC(C)(C)C(=O)N[C@H](C(=O)N[C@@H](CCCNC(=N)N)C(=O)N[C@@H](CCC(N)=O)C(=O)N[C@@H](CCCNC(=N)N)C(=O)N[C@@H](Cc1ccc(O)cc1)C(N)=O)[C@@H](C)O)C(C)C [Example 16] (H-Y[Aib]EGT[αMeF]TSDK([Gly-Gly-Gly-Gly-C18 diacid])SI[Aib]LDKQRQ[Iva]EFVRHLLNK[Aib]TRQRY-NH2)	2.6		
CC[C@H](C)[C@H](NC(=O)C(C)(C)NC(=O)[C@H](CCCCNC(=O)CNC(=O)CNC(=O)CNC(=O)CNC(=O)CCCCCCCCCCCCCCCCC(=O)O)NC(=O)[C@H](CC(=O)O)NC(=O)[C@H](CO)NC(=O)[C@@H](NC(=O)[C@](C)(Cc1ccccc1)NC(=O)[C@@H](NC(=O)CNC(=O)[C@H](CCC(=O)O)NC(=O)C(C)(C)NC(=O)[C@H](Cc1ccc(O)cc1)NC)[C@@H](C)O)[C@@H](C)O)C(=O)NC(C)(C)C(=O)N[C@@H](CC(C)C)C(=O)N[C@@H](CCC(=O)O)C(=O)N[C@@H](CCCCN)C(=O)N[C@@H](CCC(N)=O)C(=O)N[C@@H](CCCNC(=N)N)C(=O)N[C@@H](CCC(N)=O)C(=O)N[C@@](C)(CC)C(=O)N[C@@H](CCC(=O)O)C(=O)N[C@@H](Cc1ccccc1)C(=O)N[C@H](C(=O)N[C@@H](CCCNC(=N)N)C(=O)N[C@@H](Cc1c[nH]cn1)C(=O)N[C@@H](CC(C)C)C(=O)N[C@@H](CC(C)C)C(=O)N[C@@H](CC(N)=O)C(=O)N[C@@H](CCCCN)C(=O)NC(C)(C)C(=O)N[C@H](C(=O)N[C@@H](CCCNC(=N)N)C(=O)N[C@@H](CCC(N)=O)C(=O)N[C@@H](CCCNC(=N)N)C(=O)N[C@@H](Cc1ccc(O)cc1)C(N)=O)[C@@H](C)O)C(C)C [Example 34] (H-[NMeY][Aib]EGT[αMeF]TSDK([Gly-Gly-Gly-Gly-C18 diacid])[Aib]I[Aib]LEKQRQ[Iva]EFVRHLLNK[Aib]TRQRY-NH2)	1.5	−39.9	
CC[C@H](C)[C@H](NC(=O)C(C)(C)NC(=O)[C@H](CCCCNC(=O)CNC(=O)CNC(=O)CNC(=O)CNC(=O)CCCCCCCCCCCCCCCCC(=O)O)NC(=O)[C@H](CC(=O)O)NC(=O)[C@H](CO)NC(=O)[C@@H](NC(=O)[C@](C)(Cc1ccccc1)NC(=O)[C@@H](NC(=O)CNC(=O)[C@H](CCC(=O)O)NC(=O)C(C)(C)NC(=O)[C@@H](N)Cc1ccc(O)cc1)[C@@H](C)O)[C@@H](C)O)C(=O)NC(C)(C)C(=O)N[C@@H](CC(C)C)C(=O)N[C@@H](CC(=O)O)C(=O)N[C@@H](CCCCN)C(=O)N[C@@H](CCC(N)=O)C(=O)N[C@@H](C)C(=O)N[C@@H](CCC(N)=O)C(=O)N[C@@](C)(CC)C(=O)N[C@@H](CCC(=O)O)C(=O)N[C@@H](Cc1ccccc1)C(=O)N[C@H](C(=O)N[C@@H](CCCNC(=N)N)C(=O)N[C@@H](Cc1c[nH]cn1)C(=O)N[C@@H](CC(C)C)C(=O)N[C@@H](CC(C)C)C(=O)N[C@@H](CC(N)=O)C(=O)N[C@@H](CCCCN)C(=O)NC(C)(C)C(=O)N[C@H](C(=O)N[C@@H](CCCNC(=N)N)C(=O)N[C@@H](CCC(N)=O)C(=O)N[C@@H](CCCNC(=N)N)C(=O)N[C@@H](Cc1ccccc1F)C(N)=O)[C@@H](C)O)C(C)C [Example 2] (H-Y[Aib]EGT[αMeF]TSDK([Gly-Gly-Gly-Gly-C18 diacid])[Aib]I[Aib]LDKQAQ[Iva]EFVRHLLNK[Aib]TRQR[Phe(2-F)]-NH2)	2.1		−77.3
